Test system: NOMO1
Assay: cell viability relative to DMSO control; higher = less cytotoxic
Settings: 48 h
Method in brief: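 NOMO1 or SEM (500 cells/well) or P12-Ichikawa (1000 cells/well) leukemia cells were adapted for at least four passages in each medium. They were seeded in 1536-well plates (5 μl) and pin-dosed with library compounds in DMSO over an 11-point threefold series, 47 μM to 0.79 nM. CellTiter-Glo One luminescence was read after 48 h at 37°C. Viability is the per-plate percentage relative to DMSO wells, with cell-free wells as background.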

[1] = HPLM + 10% dialyzed FBS, 0.000781 µM
[2] = HPLM + 10% dialyzed FBS, 0.00234 µM
[3] = HPLM + 10% dialyzed FBS, 0.00702 µM
[4] = HPLM + 10% dialyzed FBS, 0.0211 µM
[5] = HPLM + 10% dialyzed FBS, 0.0632 µM
[6] = HPLM + 10% dialyzed FBS, 0.19 µM
[7] = HPLM + 10% dialyzed FBS, 0.569 µM
[8] = HPLM + 10% dialyzed FBS, 1.71 µM
[9] = HPLM + 10% dialyzed FBS, 5.12 µM
[10] = HPLM + 10% dialyzed FBS, 15.4 µM
[11] = HPLM + 10% dialyzed FBS, 46.1 µM
[12] = RPMI 5 mM glucose + 10% FBS, 0.000781 µM
[13] = RPMI 5 mM glucose + 10% FBS, 0.00234 µM
[14] = RPMI 5 mM glucose + 10% FBS, 0.00702 µM
[15] = RPMI 5 mM glucose + 10% FBS, 0.0211 µM
[16] = RPMI 5 mM glucose + 10% FBS, 0.0632 µM
[17] = RPMI 5 mM glucose + 10% FBS, 0.19 µM
[18] = RPMI 5 mM glucose + 10% FBS, 0.569 µM
[19] = RPMI 5 mM glucose + 10% FBS, 1.71 µM
[20] = RPMI 5 mM glucose + 10% FBS, 5.12 µM
[21] = RPMI 5 mM glucose + 10% FBS, 15.4 µM
[22] = RPMI 5 mM glucose + 10% FBS, 46.1 µM
[23] = RPMI 5 mM glucose + 10% dialyzed FBS, 0.000781 µM
[24] = RPMI 5 mM glucose + 10% dialyzed FBS, 0.00234 µM
[25] = RPMI 5 mM glucose + 10% dialyzed FBS, 0.00702 µM
[26] = RPMI 5 mM glucose + 10% dialyzed FBS, 0.0211 µM
[27] = RPMI 5 mM glucose + 10% dialyzed FBS, 0.0632 µM
[28] = RPMI 5 mM glucose + 10% dialyzed FBS, 0.19 µM
[29] = RPMI 5 mM glucose + 10% dialyzed FBS, 0.569 µM
[30] = RPMI 5 mM glucose + 10% dialyzed FBS, 1.71 µM
[31] = RPMI 5 mM glucose + 10% dialyzed FBS, 5.12 µM
[32] = RPMI 5 mM glucose + 10% dialyzed FBS, 15.4 µM
[33] = RPMI 5 mM glucose + 10% dialyzed FBS, 46.1 µM

| SMILES | cell viability [1] [%] | cell viability [2] [%] | cell viability [3] [%] | cell viability [4] [%] | cell viability [5] [%] | cell viability [6] [%] | cell viability [7] [%] | cell viability [8] [%] | cell viability [9] [%] | cell viability [10] [%] | cell viability [11] [%] | cell viability [12] [%] | cell viability [13] [%] | cell viability [14] [%] | cell viability [15] [%] | cell viability [16] [%] | cell viability [17] [%] | cell viability [18] [%] | cell viability [19] [%] | cell viability [20] [%] | cell viability [21] [%] | cell viability [22] [%] | cell viability [23] [%] | cell viability [24] [%] | cell viability [25] [%] | cell viability [26] [%] | cell viability [27] [%] | cell viability [28] [%] | cell viability [29] [%] | cell viability [30] [%] | cell viability [31] [%] | cell viability [32] [%] | cell viability [33] [%] |
| --- | --- | --- | --- | --- | --- | --- | --- | --- | --- | --- | --- | --- | --- | --- | --- | --- | --- | --- | --- | --- | --- | --- | --- | --- | --- | --- | --- | --- | --- | --- | --- | --- | --- |
| Cc1c[nH]c(/C=C2\C(=O)Nc3ccccc32)c1CCC(=O)O | 109 | 114 | 116 | 101 | 90.1 | 102 | 95.3 | 83 | 82.2 | 61.3 | 50.7 | 125 | 124 | 114 | 122 | 122 | 116 | 121 | 116 | 103 | 70.6 | 68.1 | 123 | 126 | 121 | 110 | 109 | 111 | 118 | 104 | 91.7 | 77.1 | 58.6 |
| CN1CCCN(C(=O)c2cccc(-c3ccc(/C=C4/C(=O)Nc5ccc(Cl)cc54)o3)c2)CC1 | 134 | 118 | 120 | 124 | 112 | 102 | 109 | 103 | 91.8 | 96.7 | 66.1 | 124 | 107 | 108 | 110 | 98.3 | 109 | 94.4 | 96.1 | 99.4 | 85.8 | 47.4 | 111 | 112 | 109 | 107 | 111 | 109 | 104 | 96.2 | 85.6 | 94.5 | 60 |
| COc1cc2nccc(Oc3ccc(NC(=O)Nc4cc(C)on4)c(Cl)c3)c2cc1OC | 113 | 117 | 117 | 138 | 108 | 116 | 121 | 130 | 115 | 129 | 87.8 |  |  |  |  |  |  |  |  |  |  |  | 124 | 124 | 119 | 114 | 112 | 115 | 111 | 136 | 112 | 120 | 70.9 |
| NC1CCC(N[C@@H]2C[C@H]2c2ccccc2)CC1 (some centres undefined) | 78.6 | 92.8 | 94.8 | 93.3 | 94.2 | 108 | 117 | 108 | 107 | 111 | 92 | 95.3 | 88.9 | 101 | 104 | 101 | 89.4 | 94.4 | 89.8 | 94.3 | 100 | 93.3 | 95.5 | 97 | 96 | 96.8 | 100 | 96.7 | 85.5 | 93.8 | 99.7 | 88 | 84 |
| CO[C@H]1C[C@@H]2CC[C@@H](C)[C@@](O)(O2)C(=O)C(=O)N2CCCC[C@H]2C(=O)O[C@H]([C@H](C)C[C@@H]2CC[C@@H](OP(C)(C)=O)[C@H](OC)C2)CC(=O)[C@H](C)/C=C(\C)[C@@H](O)[C@@H](OC)C(=O)[C@H](C)C[C@H](C)/C=C/C=C/C=C/1C | 110 | 114 | 109 | 116 | 106 | 113 | 102 | 105 | 96.7 | 97 | 94.5 |  |  |  |  |  |  |  |  |  |  |  | 122 | 113 | 118 | 115 | 117 | 121 | 120 | 125 | 124 | 103 | 120 |
| Nc1ccccc1NC(=O)c1ccc(CNc2nccc(-c3cccnc3)n2)cc1 | 111 | 115 | 117 | 118 | 119 | 117 | 105 | 72.1 | 23.4 | 9.43 | 9.03 | 90.9 | 113 | 103 | 103 | 122 | 114 | 97.8 | 83.2 | 27.2 | 9.84 | 8.73 | 108 | 117 | 115 | 119 | 132 | 114 | 106 | 74.7 | 24.2 | 12.2 | 10.7 |
| CN1C(=O)\C(=C/C(=C1/NC2=C(F)C=C(I)C=C2)C(=O)NOCCO)C | 89.8 | 89.6 | 77.9 | 64.2 | 46.3 | 45.8 | 40.2 | 41.6 | 32.9 | 39.8 | 36.1 | 86 | 93.8 | 75.3 | 72 | 50.2 | 52.2 | 49.4 | 46.7 | 43.4 | 41.4 | 46.5 | 75 | 81.7 | 78.5 | 62.9 | 45.9 | 40.8 | 40 | 40.4 | 37.6 | 43.1 | 43.3 |

Reference: the supplement of paper PMC11451515
